Results taken from article PMC8650031, “Santin and cirsimaritin from Betula pubescens and Betula pendula buds induce apoptosis in human digestive system cancer cells” (Journal of Cellular and Molecular Medicine, 2021).

Key:
[1] = test system: normal human skin fibroblasts (CCD25Sk); experiment: MTT cell viability assay, normal fibroblasts; type: cell-based; settings: Skin fibroblast
Procedure: (§1) Viability of cells was determined using the MTT assay. Cells were plated in 96‐well plates at 1 × 10^4 cells per well and allowed to adhere for 24 h. […] MTT (3‐(4,5‐Dimethyl‐2‐thiazolyl)‐2,5‐diphenyl‐2H‐tetrazolium bromide, Sigma‐Aldrich, USA) solution was added to each well, and cells were incubated at 37°C for 4 h. The medium was then removed, and formazan crystals were dissolved in 100 μL of DMSO and 12.5 μL of Sorensen's glycine buffer on a plate shaker. Absorbance was measured at 570 nm using a microplate reader. IC50 values were calculated using GraphPad Prism software.

HepG2 cells [2] = experiment: [3H]-thymidine incorporation (DNA biosynthesis), HepG2; type: cell-based, human; settings: HepG2, 50 μM, 48 h
Procedure: (§2) Cells were plated in 24‐well plates at 4 × 10^4 cells per well and allowed to adhere for 24 h. Cells were treated with the various concentrations of flavonoids (25, 50 and 100 μM) in 1 mL medium containing 0.5 μCi [^3H]‐thymidine (#MT6037, Hartmann Analytic, Germany) for 48 h. Medium was discarded, and cells were rinsed three times with phosphate buffered saline (PBS), and solubilized with 1 mL of 0.1 M sodium hydroxide containing 1% sodium dodecyl sulphate. Then, 9 mL of scintillation liquid (PerkinElmer, USA) was added, and radioactivity incorporated into DNA was measured using a scintillation counter.

AGS cells [3] = experiment: Colony formation assay, AGS; type: cell-based, human; settings: 48 h treatment then 7 days culture; for decrease in number of colonies: 12.5 μM
Procedure: (§3) 2.5. Colony formation assay
(§4) In total, 250 cells were plated in each well of 12-well plates and allowed to adhere for 24 h.
(§5) Cells were treated with various concentrations of flavonoids (3.125, 6.25, 12.5, 25, 50 and 100 μM) for 48 h. Medium was discarded and fresh medium was added. After seven days, culture medium was removed and cells were washed once with PBS. Then, cells were fixed with 4% formaldehyde and stained with 0.1% crystal violet. […]

p53 in AGS cells = experiment: p53 expression by Western blot and fluorescence microscopy, AGS; type: cell-based, human; settings: 48 h treatment
Procedure: (§6) Cells were seeded at a density of 1 × 10^5 cells per well in 6-well plates and allowed to adhere for 24 h. Cells were treated with various concentrations of flavonoids (12.5, 25, 50 and 100 […]
(§7) Adherent and floating cells were harvested and sonicated. Obtained homogenates were supplemented with 1% protease and phosphatase inhibitor cocktail (#78440, Thermo Fisher Scientific, USA). A Lowry assay was performed to quantify protein content in the homogenates. Proteins (20–40 μg) were resolved on 7.5%, 10% or 12% SDS-PAGE gels using the Mini-Protean Tetra system (Bio-Rad, USA). Proteins were transferred to nitrocellulose membranes (Bio-Rad, USA) using the Mini Trans-Blot Cell wet blotting system (Bio-Rad, USA). Membranes were blocked with 5% skim milk for 1 hour at room temperature and probed overnight at 4 °C with primary antibodies. The following antibodies […]
(§8) 1:1000), purchased from Cell Signaling Technology (USA); anti-p53 antibody (#sc-126, […]
(§9) 1:500) obtained from Santa Cruz Biotechnology (USA); and anti-actin antibody (#A2066, 1:2000) purchased from Sigma-Aldrich (USA). After extensive washes, a secondary antibody solution in 5% skim milk (anti-mouse IgG-HRP, Sigma-Aldrich, #A9044, 1:5000; anti-rabbit IgG-HRP, Sigma-Aldrich, #A9169, 1:5000) was added for 1 h at room temperature.
(§10) Membranes were incubated with ECL-HRP substrate (GE Healthcare, USA) and the signal was detected using the BioSpectrum Imaging System (Ultra-Violet Products, Ltd., UK).
(§11) 2.8. Immunofluorescence microscopy
(§12) Cells were plated in 96-well plates at 1 × 10^4 cells per well and allowed to adhere for 24 h.
(§13) Cells were treated with the respective concentration of flavonoids and incubated for 48 h. […]
(§14) The mass spectrometric detector was calibrated by analyzing flavonoid solutions in the concentration range 0.06‒2.0 mg/ml in the mode of selective monitoring of the most intense ions (M+ ‒ CH3) in the spectra of TMS derivatives of the determined components (Table S1).

p53 in DLD‐1 cells = experiment: p53 expression by Western blot and fluorescence microscopy, DLD-1; type: cell-based, human; settings: DLD-1, 48 h treatment
Procedure: as §6, §7, §8, §9, §10, §11, §12, §13, §14

DLD‐1 cells [4] = experiment: Annexin V/propidium iodide apoptosis assay, DLD-1; type: cell-based, human; settings: 48 h
Procedure: (§15) Cells were seeded at a density of 1 × 10^5 cells per well in 6-well plates and allowed to adhere for 24 h. Cells were treated with various concentrations of flavonoids (12.5, 25, 50 and 100 μM) for 48 h. Floating and adherent cells were collected and assayed using a Dead Cell Apoptosis Kit with annexin V-fluorescein isothiocyanate (FITC) and propidium iodide (PI), for flow cytometry (#V13242, Thermo Fisher Scientific, USA), according to the manufacturer’s protocol. Briefly, cells were dispersed in 100 μL annexin-binding buffer containing 5 μL annexin V-FITC conjugate solution, 1 μg/mL PI and 1 μg/mL Hoechst 33342, and incubated for 15 min at room temperature. Then 400 μL of annexin-binding buffer was added, and the cell suspension was transferred to 96-well plates and visualised using fluorescence microscopy on a BD Pathway 855 system (Becton Dickinson, USA). Early […]
(§16) red and blue fluorescence. […]

p53 in HepG2 cells = experiment: p53 expression by Western blot and fluorescence microscopy, HepG2; type: cell-based, human; settings: HepG2, 48 h treatment
Procedure: as §6, §7, §8, §9, §10, §11, §12, §13, §14

AGS cells [5] = experiment: [3H]-thymidine incorporation (DNA biosynthesis), AGS; type: cell-based, human; settings: 50 μM, 48 h
Procedure: as §2

[6] = test system: gastric adenocarcinoma AGS cells; experiment: MTT cell viability assay, AGS cells; type: cell-based, human; settings: for IC50: Homo sapiens, MTT; for reduction in viability: 100 μM
Procedure: as §1

DLD‐1 cells [7] = experiment: [3H]-thymidine incorporation (DNA biosynthesis), DLD-1; type: cell-based, human; settings: DLD-1, 50 μM, 48 h
Procedure: as §2

AGS cells [8] = experiment: Annexin V/propidium iodide apoptosis assay, AGS; type: cell-based, human; settings: 48 h
Procedure: as §15, §16

HepG2 cells [9] = experiment: Annexin V/propidium iodide apoptosis assay, HepG2; type: cell-based, human; settings: 48 h
Procedure: as §15, §16

[10] = test system: colorectal adenocarcinoma DLD‐1 cells; experiment: MTT cell viability assay, DLD-1 cells; type: cell-based, human; settings: for reduction in viability: DLD-1, 100 μM; for IC50: Homo sapiens, MTT
Procedure: as §1

[11] = test system: hepatocellular carcinoma HepG2 cells; experiment: MTT cell viability assay, HepG2 cells; type: cell-based, human; settings: for reduction in viability: HepG2, 100 μM; for IC50: Homo sapiens, MTT
Procedure: as §1

HepG2 cells [12] = experiment: Colony formation assay, HepG2; type: cell-based, human; settings: 48 h treatment then 7 days culture
Procedure: as §3, §4, §5

DLD‐1 cells [13] = experiment: Colony formation assay, DLD-1; type: cell-based, human; settings: 48 h treatment then 7 days culture
Procedure: as §3, §4, §5

Structure (SMILES)	IC50 ([1]; 24 h)	IC50 ([1]; 48 h)	IC50 ([1]; 72 h)	reduction of [3H]-thymidine incorporation (HepG2 cells [2])	p53 level (p53 in AGS cells)	p53 level (p53 in DLD‐1 cells)	p53 level (p53 in HepG2 cells)	reduction of [3H]-thymidine incorporation (AGS cells [5])	IC50 ([6]; 48 h)	IC50 ([6]; 72 h)	reduction of [3H]-thymidine incorporation (DLD‐1 cells [7])	IC50 ([10]; DLD-1, 48 h)	also measured
COc1cc2oc(-c3ccc(O)cc3)cc(=O)c2c(O)c1OC [cirsimaritin]	> 50 µM	> 50 µM	> 50 µM	53.6%	increased significantly	decreased	increased significantly	24.5%	31.7 ± 2.4 µM	17.1 ± 1.4 µM	10.0%	–	decrease in number of colonies (AGS cells [3]): 75.7%; percentage of cells in the early stage of apoptosis (DLD‐1 cells [4]; DLD-1, 50 μM): 51.5%; percentage of cells in the late stage of apoptosis (DLD‐1 cells [4]; DLD-1, 50 μM): 15.5%; percentage of cells in the early stage of apoptosis (AGS cells [8]; 50 μM): 37.0%; percentage of cells in the late stage of apoptosis (AGS cells [8]; 50 μM): 7.4%; percentage of cells in the early stage of apoptosis (HepG2 cells [9]; HepG2, 50 μM): 51.2%; percentage of cells in the late stage of apoptosis (HepG2 cells [9]; HepG2, 50 μM): 5.4%
COc1ccc(-c2oc3cc(O)cc(O)c3c(=O)c2OC)cc1 [ermanin]	–	–	–	85.2%	–	–	–	28.2%	49.3 ± 3.3 µM	44.5 ± 3.1 µM	29.1%	49.3 ± 2.5 µM	reduction in viability ([10]; 48 h): over 80%; reduction in viability ([10]; 72 h): over 80%; reduction in viability ([6]; 48 h): over 80%; reduction in viability ([6]; 72 h): over 80%; reduction in viability ([11]; 48 h): over 80%; reduction in viability ([11]; 72 h): over 80%
O=c1c(O)c(-c2ccc(O)c(O)c2)oc2cc(O)cc(O)c12 [quercetin]	–	–	–	–	–	–	–	–	–	28.4 ± 2.5 µM	–	–	–
COc1ccc(-c2cc(=O)c3c(O)cc(OC)cc3o2)cc1 [apigenin−7,4'‐O‐dimethyl ether, apigenin 7,4'‐O‐dimethyl ether]	23.6 ± 2.2 µM	12.9 ± 0.5 µM	19.7 ± 1.3 µM	–	–	–	–	–	–	–	–	–	–
COc1cc(O)c2c(=O)c(OC)c(-c3ccc(O)cc3)oc2c1 [kumatakenin]	–	–	41.6 ± 3.5 µM	–	–	–	–	–	–	–	–	–	–
O=c1cc(-c2ccc(O)cc2)oc2cc(O)cc(O)c12 [apigenin, reference compound]	> 50 µM	> 50 µM	> 50 µM	85.4%	up‐regulated	up‐regulated	up‐regulated	56.2%	18.2 ± 1.3 µM	23.4 ± 1.4 µM	17.7%	43.6 ± 2 µM	decrease in number of colonies (AGS cells [3]): 13.2%; percentage of cells in the early stage of apoptosis (DLD‐1 cells [4]; DLD-1, 50 μM): 29.7%; percentage of cells in the late stage of apoptosis (DLD‐1 cells [4]; DLD-1, 50 μM): 9.4%; IC50 ([10]; DLD-1, 24 h): > 50 µM; IC50 ([10]; DLD-1, 72 h): > 50 µM; decrease in number of colonies (HepG2 cells [12]; HepG2, 12.5 μM): 61.8%; decrease in number of colonies (DLD‐1 cells [13]; DLD-1, 12.5 μM): 23.5%; IC50 ([6]; 24 h): > 50 µM; IC50 ([11]; HepG2, 24 h): > 50 µM; IC50 ([11]; HepG2, 48 h): > 50 µM; IC50 ([11]; HepG2, 72 h): 37.9 ± 2.9 µM; percentage of cells in the early stage of apoptosis (AGS cells [8]; 50 μM): 71.2%; percentage of cells in the late stage of apoptosis (AGS cells [8]; 50 μM): 9.6%; percentage of cells in the early stage of apoptosis (HepG2 cells [9]; HepG2, 50 μM): 20.5%; percentage of cells in the late stage of apoptosis (HepG2 cells [9]; HepG2, 50 μM): 12.3%
COc1ccc(-c2oc3cc(O)c(OC)c(O)c3c(=O)c2OC)cc1 [santin]	> 50 µM	> 50 µM	> 50 µM	74.9%	increased significantly	decreased	increased significantly	48.0%	17.1 ± 0.8 µM	13.9 ± 1.2 µM	35.0%	28 ± 1.3 µM	decrease in colony numbers (AGS cells [3]; 3.125 μM): 77.4%; percentage of cells in the early stage of apoptosis (DLD‐1 cells [4]; DLD-1, 12.5 μM): 54.8%; percentage of cells in the late stage of apoptosis (DLD‐1 cells [4]; DLD-1, 12.5 μM): 6.7%; IC50 ([10]; DLD-1, 24 h): > 50 µM; IC50 ([10]; DLD-1, 72 h): 36.5 ± 2.5 µM; decrease in colony numbers (HepG2 cells [12]; HepG2, 3.125 μM): 65.8%; decrease in number of colonies (DLD‐1 cells [13]; DLD-1, 6.25 μM): 60%; IC50 ([6]; 24 h): > 50 µM; IC50 ([11]; HepG2, 24 h): > 50 µM; IC50 ([11]; HepG2, 48 h): 19.8 ± 0.9 µM; IC50 ([11]; HepG2, 72 h): 22.7 ± 1.6 µM; percentage of cells in the early stage of apoptosis (AGS cells [8]; 12.5 μM): 65.8%; percentage of cells in the late stage of apoptosis (AGS cells [8]; 12.5 μM): 7.6%; percentage of cells in the early stage of apoptosis (HepG2 cells [9]; HepG2, 12.5 μM): 36.6%; percentage of cells in the late stage of apoptosis (HepG2 cells [9]; HepG2, 12.5 μM): 16.1%
